From PubChem BioAssay (NCI) come the findings set out here.

Common to all, as to experiment: DTP human tumour cell line panel, 48 h
The test system of assay [1] is IGROV1 ovarian.
Assay [2] has as its system K-562 leukemia.
Assay [3] relates to KM12 colon.
Assay [4] deals with MDA-MB-231 breast.
For assay [5], the system named is MOLT-4 leukemia.
The subject of assay [6] is SF-295 CNS.
Assay [7] concerns SF-539 CNS.
The test system of assay [8] is SN12C renal.
Assay [9] deals with T-47D breast.
Assay [10] has as its system UACC-257 melanoma.

The structures appear in SMILES notation.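 Five concentrations, 48 hours, 96-well plates. GI50 marks 50% less growth. The concentration for full growth arrest is given as TGI.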

Usually GI50 stands for the concentration that inhibits growth by half. What is called TGI is the concentration giving total growth inhibition. Read a high TGI as lower sensitivity of the cells.

As to `C[C@]12CC[C@H]3[C@@H](CC=C4C[C@@H](O)CC[C@@]43C)[C@@H]1C/C(=C\c1cccc(OCCN3CCOCC3)c1)[C@@H]2O`, the GI50 is 46 µM in [1]; 11.6 µM in assay [2]; > 100 µM in assay [3]; 87.6 µM in [4]; 13.3 µM in assay [5]; 89.4 µM in assay [6]. Moreover, the GI50 in assay [7] was > 100 µM; in assay [8], > 100 µM; in [9] it was 6.46 µM; in assay [10], 16.6 µM. Further, the TGI in assay [1] is > 100 µM; in assay [2], 40.8 µM; in [3], > 100 µM; in assay [4] it was > 100 µM; in assay [5], 48.7 µM; in assay [6], > 100 µM. In addition, the TGI in assay [7] was > 100 µM; in assay [8], > 100 µM; in [9], > 100 µM; in assay [10] it was 84.3 µM.
Turning to `CC1C(=O)N=C2C(=CN(Cc3ccccc3)c3ccccc32)C(=O)N1C` (stereo not drawn), the TGI in [1], in assay [2], in assay [3], in assay [4], in assay [7] and in assay [8] was > 100 µM throughout. The TGI in assay [9] and in [10] was > 100 µM in each case.
`COc1cc(C)cc2c1OC(c1ccccc1)CC2=O` (stereo not drawn): the GI50 in [1], in assay [2], in [3], in assay [4], in assay [5] and in [6] was > 100 µM each time. The GI50 in [7], in assay [8], in assay [9] and in assay [10] was > 100 µM each time. Further, the TGI in assay [1], in assay [2], in [3], in assay [4], in assay [5] and in [6] was > 100 µM throughout. Moreover, the TGI in [7], in assay [8], in assay [9] and in [10] was > 100 µM in each case.
Consider `S=C(Nc1ccccc1)c1ccccn1`, for which the GI50 in assay [1] was 42.4 µM; in [2], 48.4 µM; in assay [3] it was > 100 µM; in [4] it was 51.2 µM; in [5], 42.1 µM; in [6] it was 32.8 µM. Also, the GI50 in assay [7] was > 100 µM; in [8] it was 95.9 µM; in assay [9] it was > 100 µM; in assay [10] it was > 100 µM. The TGI in assay [1], in assay [2], in assay [3], in [4], in [5] and in assay [6] was > 100 µM each time. The TGI in assay [7], in [8], in [9] and in assay [10] was > 100 µM each time.
As to `O=C(Oc1ccccc1)c1cc(O)c(O)c(O)c1`, the GI50 was 11.6 µM in assay [1]; 5.78 µM in [2]; 11.5 µM in assay [3]; 26.2 µM in assay [4]; 2.23 µM in [5]; 17.9 µM in [6]. The GI50 is 5.65 µM in assay [7], 9.73 µM in assay [8], 18.1 µM in assay [9] and 35.8 µM in assay [10]. Further, the TGI in assay [1] was > 100 µM; in [2], 70.9 µM; in assay [3] it was > 100 µM; in [4], > 100 µM; in assay [5] it was 26.2 µM; in assay [6] it was 83.7 µM. For the same molecule, the TGI in assay [7] is 36.3 µM; in assay [8], > 100 µM; in [9] it was > 100 µM; in [10], > 100 µM.
Consider `O=C1C(NCCO)=C(N2CC2)C(=O)C(NCCO)=C1N1CC1`, for which the TGI in assay [1] was > 100 µM; in assay [2] it was 84.7 µM; in assay [3], > 100 µM; in [4], > 100 µM; in assay [5], 58.5 µM; in assay [6] it was 64.6 µM. Besides, the TGI was 98 µM in assay [7], 56.7 µM in assay [8], > 100 µM in assay [9] and > 100 µM in [10].
On to `Cc1sc2ncnc(Sc3nc4ccccc4[nH]3)c2c1C`, for which the GI50 in assay [1] was 33.2 µM; in assay [2], 23.4 µM; in [3], 27.2 µM; in [4] it was 17.4 µM; in [5], 22.2 µM; in assay [6] it was 55.8 µM. For the same molecule, the GI50 is 38.4 µM in [7], 32.5 µM in [8], 18.1 µM in assay [9] and 24.7 µM in assay [10]. Besides, the concentration for total growth inhibition (TGI) in assay [1] was > 100 µM; in assay [2], 97.3 µM; in assay [3], > 100 µM; in assay [4] it was 94.3 µM; in assay [5] it was 88.7 µM; in [6], > 100 µM. Moreover, the TGI was > 100 µM in assay [7], > 100 µM in [8], 62.9 µM in assay [9] and 98.9 µM in assay [10].
On to `Cc1c(C(=O)/C=C/c2ccc(O)cc2)nnn1-c1ccnc2c(C(F)(F)F)cccc12`, for which the GI50 in assay [1] is 21.9 µM; in assay [2] it was 2.64 µM; in assay [3], 8.92 µM; in [4], 21.7 µM; in assay [5], 5.06 µM; in [6] it was 25.8 µM. Also, the GI50 in assay [7] is 72.5 µM; in assay [8], 18 µM; in [9] it was 5.53 µM; in assay [10] it was 4.4 µM. Moreover, the TGI in [1] was > 100 µM; in assay [2] it was > 100 µM; in [3] it was > 100 µM; in assay [4] it was > 100 µM; in assay [5], 30.6 µM; in [6] it was > 100 µM. Moreover, the TGI in [7] is > 100 µM; in assay [8], > 100 µM; in [9], > 100 µM; in assay [10], 22.9 µM.
